Measurements as given in patent US6890954B1, “Uses of 2-bromopalmitate in the treatment of autoimmune disease” (priority 1999, dated 2005).

Assays:
Type in all cases: cell-based
[1] = system: Fyn; test: Localization of Fyn to Triton X-100 insoluble fractions in COS-1 cells; conditions: COS-1, 1% Triton X-100 extraction; untreated: majority detergent resistant
Method: (§1) Isolation of Triton X-100 resistant and soluble fractions was carried out as described previously (12). Isolation of detergent resistant microdomains by sucrose gradients were carried out as follows (19): Jurkat cells (5×10^7) were treated with 2-bromopalmitate, activated with OKT3 mAb as described above, and lysed in 1 ml lysis buffer (25 mM MES pH 6.5, 150 mM NaCl, 0.5% Triton X-100, 1 mM Na3VO4) supplemented with protease inhibitors for 30 minutes at 0° C. After homogenizing 10 times with a loose fit Dounce homogenizer, lysates were mixed with 1 ml 85% sucrose in MBS (25 mM MES pH 6.5, 150 mM NaCl), and overlayered with 6 ml 30% sucrose in MBS, then with 4 ml 5% sucrose in MBS. Following centrifugation for 16 hours at 145,000 g in an SW40 rotor, 1 ml fractions were collected and analyzed by PAGE and immunoblotting with anti-Fyn, anti-LAT, or anti-Lck antibodies.
Previous experiments have shown that following rapid membrane binding of newly synthesized Fyn, there is a slower partitioning of Fyn (10-20 minutes) to regions of the plasma membrane that are resistant to Triton X-100 extraction at 4° C. (12). Therefore the effect of 2-bromopalmitate on the localization of Fyn to Triton X-100 insoluble fractions was examined. Transfected COS-1 cells were left untreated or treated with 2-bromopalmitate as described above. […]

[2] = system: Lck; test: DRM (raft) localization in activated Jurkat cells, sucrose gradient: Lck; conditions: 100 μM 3 hours, OKT3 activated, control 59%
Method: as §1
The ability of 2-bromopalmitate to inhibit localization of palmitoylated proteins to detergent resistant microdomains in activated Jurkat cells was examined next. Cells were either left untreated or treated with 100 μM 2-bromopalmitate for 3 hours, washed, resuspended in serum-free media, and the TCR was activated with OKT3 mAb. Activated cells were extracted with Triton X-100 containing buffer. […] Each fraction was analyzed by immunoblotting with specific antibodies. […]

[3] = system: MAP kinase; test: Activation of MAP kinase in Jurkat cells (pERK immunoblot); conditions: OKT3 activated, pERK1 blot
Method: Jurkat cells were treated with 2-bromopalmitate and activated as described above. Lysates were analyzed for the presence of active MAP kinase by immunoblotting with a pERK antibody, and for total MAP kinase by immunoblotting with an anti MAPK antibody.
One of the proximal events following T cell receptor engagement is activation of the MAP Kinase pathway. The ability of 2-bromopalmitate to inhibit activation of MAP kinase was examined in Jurkat cells. Cells were cultured with or without 2bromo-palmitate and activated as described above. Cell lysates were subjected to SDS-PAGE and immunoblotted with anti-active MAPK kinase (pERK1). As depicted in FIG. 7, 2-bromopalmitate inhibited the activation of MAPK kinase by 70%. The levels of total MAPK kinase remained unchanged (FIG. 7).

[4] = system: GAP43(10)-Fyn; test: Membrane binding of GAP43(10)-Fyn chimera in COS-1 cells; conditions: COS-1, 2-bromopalmitate overnight, 2 hours label
Method: (§2) For analysis of newly synthesized Fyn, cells were cultured overnight as descibed above, then starved for 1 hr in DMEM minus methionine and cysteine containing 2% dialyzed FBS, 0.5% defatted BSA with or without 100 μM 2-bromopalmitate. Cells were labeled for 5 minutes with Trans^35S-Label (ICN, Irvine, Calif.), then fractionated as described above. Gels were treated for 20 minutes with 1M salicylic acid prior to drying. The Gαo(10)-Fyn chimera was labeled for 5 min and GAP-43 Fyn chimera was labeled for 2 hours and fractionated according to the above conditions.
(§3) Each of these three sequences was appended onto the Fyn protein. Gαo(10)-Fyn and GAP43(10)-Fyn are chimeric constructs with the first 10 amino acids of Gαo or GAP-43, respectively, in place of the first 10 amino acids of wt Fyn. These constructs have been previously described (12,13). In addition, the H-Ras tail was fused to the C-terminus of a non-acylated Fyn mutant (G2A,C3SFyn-HRas). This construct contains full length Fyn with mutations in the N-terminal myristoylation and palmitoylation sites, but with the C-terminus of H-Ras available for prenylation and palmitoylation.

[5] = system: ZAP-70; test: CD3-mediated tyrosine phosphorylation of ZAP-70 in Jurkat cells; conditions: 100 μM 3 hours, OKT3
Method: Jurkat T cells (2×10^6−1×10^7) were centrifuged at 1,000×g for 5 minutes, rinsed with RPMI, resuspended in RPMI supplemented with 2% dialyzed FBS, 0.5% defatted BSA, and incubated with or without 100 μM 2-bromopalmitate at 8×10^5 cells/ml for 3 hours. The cells were centrifuged, washed with RPMI and resuspended in RPMI at 1×10^7−1×10^8 cells/ml. The cells were then activated with anti-CD3 OKT3 mAb (0.3 mg/ml) for 3 min at 37° C., quickly spun down, washed once with cold RPMI and once with cold STE, and lysed in RIPA Samples were solubilized in 1× sample buffer containing 5% β-mercaptoethanol and subjected to SDS-PAGE, followed by immunoblotting with anti-phosphotyrosine antibody (PY99). For analysis of specific proteins, RIPA lysates were immunoprecipitated with the specific antibodies O/N, and immunoblotted for phosphotyrosine. Alternatively, proteins were immunoprecipitated with agarose-conjugated anti phosphotyrosine antibody and blotted for the specific proteins.
In order to identify the individual proteins whose tyrosine phosphorylation is affected by 2-bromopalmitate, lysates were immunoprecipitated with a panel of specific antibodies, and immunoblotted for phosphotyrosine. Alternatively, lysates were immunoprecipitated with an antiphosphotyrosine antibody, and blotted with antibodies to specific proteins.

[6] = system: GαO(10)-Fyn; test: Membrane binding of Gαo(10)-Fyn chimera in COS-1 cells; conditions: COS-1, 2-bromopalmitate overnight, 5 min label
Method: as §2, §3

[7] = system: G2A,C3SFyn-HRas and G12V H-Ras; test: Membrane localization of the two Ras constructs in COS-1 cells; conditions: COS-1, 2-bromopalmitate overnight
Method: Analysis of the G2A,C3S Fyn-HRas chimera was performed according to the procedure described above. Analysis of the G12V HRas construct was according to the procedure described above, except that the samples were not immunoprecipiated, and were subjected to immunoblotting with anti-HRas antibody.
as §3
Finally, an oncogenic G12V full length H-Ras construct was tested. […] In contrast, 2-bromopalmitate had only a minimal effect on the membrane localization of the two Ras constructs, inducing a 10-20% shift from membrane to cytosol (FIGS. 3C and D). The G12V H-Ras construct migrates as a doublet on a gel. The slower migrating form represents the non-processed cytosolic form of H-Ras, and the faster migrating form represents the processed Ras, which is membrane bound.

With `CCCCCCCCCCCCCCC(Br)C(=O)O` (stereo not shown) [2-bromopalmitate] the “Fyn association with detergent resistant vs soluble fraction” value [1] was “mostly soluble”, the “Lck found in the rafts” value [2] was 19% and the “activation of MAPK kinase inhibited” value [3] was 70%. The “inhibition of membrane binding of GAP43(10)-Fyn” value [4] was “to the same extent as wt Fyn”, the ZAP-70 phosphorylation inhibited [5] was 50% and the “inhibition of membrane binding of GαO(10)-Fyn” value [6] was “to the same extent as wt Fyn”. For the same molecule, the “shift from membrane to cytosol of the two Ras constructs” value [7] was 10-20%.
